Results on 19 compounds are retold here after patent US20210079015A1, “NOVEL DIHYDROISOXAZOLE COMPOUNDS AND THEIR USE FOR THE TREATMENT OF HEPATITIS B” (Novartis AG, priority 2017, published 2021).

Usually EC50 stands for the concentration needed to bring the measured effect to its halfway point.

The test concerns HBV. Briefly: Anti-HBV assay (inhibition of HBV replication in HepG2.cl42 cells, HBV DNA by qPCR). Conditions: Hepatitis B virus, 96 h, treated four days, HBV DNA quantified by real time PCR, read-out: HBsAg EC50. In kind it is cell-based, HBV ayw strain. A general note: In qPCR the cycle at which signal appears reflects the starting amount.

Molecules are shown by their SMILES. Some results are limits rather than exact numbers.

As for `O=C(Nc1cc(F)c(F)c(C(F)F)c1)N1CCc2noc(N3CCCOC3=O)c2C1` [Compound 45, N-(3-(difluoromethyl)-4,5-difluorophenyl)-3-(2-oxo-1,3-oxazinan-3-yl)-6,7-dihydroisoxazolo[4,3-c]pyridine-5(4H)-carboxamide], the 50% effective concentration (EC50) is under 100 nM. Take `C[C@H]1Cc2noc(N3CCCCC3=O)c2CN1C(=O)Nc1cc(F)c(F)c(F)c1` [Compound 46, (S)-6-methyl-3-(2-oxopiperidin-1-yl)-N-(3,4,5-trifluorophenyl)-6,7-dihydroisoxazolo[4,3-c]pyridine-5(4H)-carboxamide]: the 50% effective concentration (EC50) is under 100 nM. Consider `C[C@H]1Cc2noc(N3CCCCC3=O)c2CN1C(=O)Nc1ccc(C#N)c(F)c1` [Compound 47, (S)—N-(4-cyano-3-fluorophenyl)-6-methyl-3-(2-oxopiperidin-1-yl)-6,7-dihydroisoxazolo[4,3-c]pyridine-5(4H)-carboxamide], for which the EC50 lay within 100 to 1000 nM. Under `C[C@H]1Cc2noc(N3CCCOC3=O)c2CN1C(=O)Nc1cc(F)c(F)c(F)c1` [Compound 48, (S)-6-methyl-3-(2-oxo-1,3-oxazinan-3-yl)-N-(3,4,5-trifluorophenyl)-6,7-dihydroisoxazolo[4,3-c]pyridine-5(4H)-carboxamide] stands under 100 nM; under `C[C@H]1Cc2noc(N3CCOCC3=O)c2CN1C(=O)Nc1cc(F)c(F)c(F)c1` [Compound 49, (S)-6-methyl-3-(3-oxomorpholino)-N-(3,4,5-trifluorophenyl)-6,7-dihydroisoxazolo[4,3-c]pyridine-5(4H)-carboxamide], under 100 nM; under `C[C@H]1Cc2noc(N3CCCOC3=O)c2CN1C(=O)Nc1ccc(F)c(C(F)F)c1` [Compound 50, (S)—N-(3-(difluoromethyl)-4-fluorophenyl)-6-methyl-3-(2-oxo-1,3-oxazinan-3-yl)-6,7-dihydroisoxazolo[4,3-c]pyridine-5(4H)-carboxamide], under 100 nM. The figure for `C[C@H]1Cc2noc(N3CCCOC3=O)c2CN1C(=O)Nc1cc(F)c(F)c(C(F)F)c1` [Compound 51, (S)—N-(3-(difluoromethyl)-4,5-difluorophenyl)-6-methyl-3-(2-oxo-1,3-oxazinan-3-yl)-6,7-dihydroisoxazolo[4,3-c]pyridine-5(4H)-carboxamide] is under 100 nM. The figure for `C[C@H]1Cc2noc(N3CCCOC3=O)c2CN1C(=O)Nc1ccnc(C(F)F)c1` [Compound 52, (S)—N-(2-(difluoromethyl)pyridin-4-yl)-6-methyl-3-(2-oxo-1,3-oxazinan-3-yl)-6,7-dihydroisoxazolo[4,3-c]pyridine-5(4H)-carboxamide] is 100 to 1000 nM; for `C[C@H]1Cc2noc(N3CCCC3=O)c2CN1C(=O)Nc1ccc(F)c(C#N)c1` [Compound 53, (S)—N-(3-cyano-4-fluorophenyl)-6-methyl-3-(2-oxopyrrolidin-1-yl)-6,7-dihydroisoxazolo[4,3-c]pyridine-5(4H)-carboxamide] it is under 100 nM; for `C[C@H]1Cc2noc(N3CCCCC3=O)c2CN1C(=O)Nc1ccccc1` [Compound 54, (S)-6-methyl-3-(2-oxopiperidin-1-yl)-N-phenyl-6,7-dihydroisoxazolo[4,3-c]pyridine-5(4H)-carboxamide] it is 100 to 1000 nM.

For the compound `C[C@H]1Cc2noc(N3CCOC3=O)c2CN1C(=O)Nc1cc(F)c(F)c(F)c1` [Compound 55, (S)-6-methyl-3-(2-oxooxazolidin-3-yl)-N-(3,4,5-trifluorophenyl)-6,7-dihydroisoxazolo[4,3-c]pyridine-5(4H)-carboxamide], the half-maximal effective concentration (EC50) lay within 100 to 1000 nM.

For the compound `CC1CCN(c2onc3c2CN(C(=O)Nc2cc(F)c(F)c(F)c2)[C@@H](C)C3)C1=O` (stereo partly drawn) [Compound 56, (6S)-6-methyl-3-(3-methyl-2-oxopyrrolidin-1-yl)-N-(3,4,5-trifluorophenyl)-6,7-dihydroisoxazolo[4,3-c]pyridine-5(4H)-carboxamide], the EC50 is under 100 nM. Under `C[C@H]1Cc2noc(N3CCC(C)(C)C3=O)c2CN1C(=O)Nc1cc(F)c(F)c(F)c1` [Compound 57, (S)-3-(3,3-dimethyl-2-oxopyrrolidin-1-yl)-6-methyl-N-(3,4,5-trifluorophenyl)-6,7-dihydroisoxazolo[4,3-c]pyridine-5(4H)-carboxamide] stands under 100 nM; under `C[C@H]1Cc2noc(N3CCCS3(=O)=O)c2CN1C(=O)Nc1cc(F)c(F)c(F)c1` [Compound 58, (S)-3-(1,1-dioxidoisothiazolidin-2-yl)-6-methyl-N-(3,4,5-trifluorophenyl)-6,7-dihydroisoxazolo[4,3-c]pyridine-5(4H)-carboxamide], under 100 nM; under `C[C@H]1Cc2noc(N3CCOCC3)c2CN1C(=O)Nc1cc(F)c(F)c(F)c1` [Compound 59, (S)-6-methyl-3-morpholino-N-(3,4,5-trifluorophenyl)-6,7-dihydroisoxazolo[4,3-c]pyridine-5(4H)-carboxamide], at least 1000 nM. The figure for `C[C@H]1Cc2noc(N3C(=O)CCC3=O)c2CN1C(=O)Nc1cc(F)c(F)c(F)c1` [Compound 60, (S)-3-(2,5-dioxopyrrolidin-1-yl)-6-methyl-N-(3,4,5-trifluorophenyl)-6,7-dihydroisoxazolo[4,3-c]pyridine-5(4H)-carboxamide] is at least 1000 nM; for `COC[C@@H]1CN(c2onc3c2CN(C(=O)Nc2cc(F)c(F)c(F)c2)[C@@H](C)C3)C(=O)O1` [Compound 61, (S)-3-((S)-5-(methoxymethyl)-2-oxooxazolidin-3-yl)-6-methyl-N-(3,4,5-trifluorophenyl)-6,7-dihydroisoxazolo[4,3-c]pyridine-5(4H)-carboxamide] it is 100 to 1000 nM; for `COC[C@H]1CN(c2onc3c2CN(C(=O)Nc2cc(F)c(F)c(F)c2)[C@@H](C)C3)C(=O)O1` [Compound 62, (S)-3-((R)-5-(methoxymethyl)-2-oxooxazolidin-3-yl)-6-methyl-N-(3,4,5-trifluorophenyl)-6,7-dihydroisoxazolo[4,3-c]pyridine-5(4H)-carboxamide] it is 100 to 1000 nM. Under `C[C@H]1Cc2noc(N3CCC(CC(=O)O)C3=O)c2CN1C(=O)Nc1cc(F)c(F)c(F)c1` (stereo partly drawn) [Compound 63, 2-(1-((S)-6-methyl-5-((3,4,5-trifluorophenyl)carbamoyl)-4,5,6,7-tetrahydroisoxazolo[4,3-c]pyridin-3-yl)-2-oxopyrrolidin-3-yl)acetic acid] stands at least 1000 nM.
